# Data from patent US6969732B2, “Propylisopropyl acetic acid and propylisopropyl acetamide stereoisomers, a method for their synthesis and pharmaceutical compositions containing them” (Yissum Research Development Company of the Hebrew …, priority 1999, dated 2005).
# Like-named read-outs stand apart in the source and are kept apart here. Marks after values point to notes of the source that are not given here.
# Key:
# [1] = Pharmacokinetic studies in mongrel dogs, intravenous injection; assay type: in vivo; settings: for clearance / MRT / half-life / Vd: mongrel, dog, plasma; for clearance: read-out: CL (clearance) (converted); for MRT: read-out: MRT (Mean Residence Time); for half-life: read-out: t½ (converted); for Vd: iv
# Procedure: Pharmacokinetic experiments were carried out on six mongrel dogs weighing 18-25 kg. Dogs were housed in an animal farm and were brought to the lab repeatedly every two-three weeks for crossover experiments after an overnight fast. Each dog was inserted with a urine (Levin's tube, Pennine Healthcare, Derby, UK) and two venous (20G/32 mm Venflon 2, Ohmeda, Helsingborg, Sweden) catheters located on different legs. Dogs were fed with commercial dog food four hours after drug injection, and had free access to water during the whole experiment.
# Each dog was intravenously injected with […] (10 mg/kg) of each enantiomer separately or […] of the racemate, dissolved in 2 ml of 96% ethyl alcohol. Venous blood samples (6 ml) were withdrawn via an indwelling catheter from the other leg than used for injection, and transferred into heparinized tubes. The blood samples were centrifuged at 3000 g for 10 minutes, plasma was then separated and stored at […] until analyzed. Blood collection commenced at 5 minutes, and continued up to 12 hours after injection. Urine samples were collected in 1-2 hour intervals beginning at 1 hour and up to 12 hours after injection. The urine volume was recorded and an aliquot was stored at […] until analyzed.
# Assay of plasma samples: to test tubes containing 2 μg of the internal standard (diisopropyl acetamide), 0.5 ml of plasma (thawed at room temperature) and 5 ml of tert-butyl methyl ether (TBME) was added. The test tubes were vigorously vortexed for 30 sec and centrifuged at 3000 g for 10 minutes. The organic phase was separated and dried under reduced pressure using a vortex evaporator. Samples were then reconstituted with 150 μl of chloroform and dried under reduced pressure without vortexing. The sample was again reconstituted with 30 μl of chloroform, of which 2 μl were injected into the GC apparatus.
# The column used for the chromatographic analysis of PID enantiomers was a Mosandl-methyl capillary column (10 m, 0.25 mm, 0.25 μm) coated with: Heptakis (2,3-di-O-methyl-6-O-tert-butyldimethylsilyl)-β-cyclodextrin as the stationary phase and nitrogen as carrier gas (takeo carbohydr res). Column head pressure was set at 50 KPa, split ratio 1:30, oven temperature 120° C., injector temperature 250° C. and detector temperature 250° C.
# NMRI mice = settings: single 3 mmol/kg subcutaneously in 25% Cremophor EL, day 8 of gestation; for Total Implants: examined day 18
# Procedure: Mice of the NMRI strain (Harlan-Winkelmann GmbH, 33176 Borchen, Germany) were kept under controlled conditions: Room temperature (21±1° C.), relative humidity (50±5%), and a 12 hour light-dark cycle with the light period from 10 a.m. to 10 p.m. Females weighing 28 to 36 g were mated with males of the same strain for 3 hours (from 6 a.m. to 9 a.m.). Animals with vaginal plugs were separated, and the following 24 hour period was designated as day 0 of pregnancy. The animals were given free access to food (Altromin 1324 diet, Lage, Germany) and tap water. Approval for the study was obtained from the Department of Health.
# Sodium valproate (VPA-Na), racemic PID, (2R)-PID and (2S)-PID were suspended in a 25% Cremophor EL aqueous solution. For another treatment group, VPA-Na was dissolved in distilled water. The pregnant dams were injected with a single 3 mmol/kg subcutaneously dose (10 ml/kg volume administered) on the morning of day 8 of gestation. Mice of the control group were injected with the vehicle, 25% Cremophor EL solution (10 ml/kg volume administered). […] Living fetuses were weighed individually and inspected for the presence of external malformations.
# mice [2] = experiment: Maximal electroshock (MES) test in mice; assay type: in vivo; settings: for MES: intraperitoneal administration
# Excerpt: (§1) Individual enantiomers of PID were screened in mice for their anticonvulsant activity (by the NIH Epilepsy Branch) following intraperitoneal administration to mice by employing a screening procedure which involves: (i) the maximal electoshock (MES) test, which measures seizure spread; (ii) the subcutaneous pentylenetetrazol test sc. Met. Test), which measures seizure threshold; and (iii) the rotorod ataxia test, which assesses neurotoxicity.
# mice [3] = experiment: Subcutaneous pentylenetetrazol (sc Met) test in mice; assay type: in vivo; settings: for sc Met: intraperitoneal administration
# Excerpt: as §1
# mice [4] = experiment: Rotorod ataxia test (neurotoxicity) in mice; assay type: in vivo; settings: for Neurotox.: mice, intraperitoneal administration, rotorod ataxia test
# Excerpt: as §1
# rats = experiment: Anticonvulsant activity in rats following oral feeding; assay type: in vivo; settings: for ED50: Rattus norvegicus
# Excerpt: as §1
# Individual enantiomers of PID were screened in rats for their anticonvulsant activity following oral feeding, by the procedure described in the previous section.
# SWV mice = experiment: Teratogenicity (Finnel) study in SWV mice; settings: for Implants: examined day 18.5
# [5] = SWV mice, single ip 600 mg/kg at day 8.5 of gestation
# [6] = enantiomer given in a racemic mixture, 20 mg/kg iv
# [7] = given as individual enantiomers, 10 mg/kg iv
# [8] = 10 mg/kg, given as individual enantiomers, 10 mg/kg iv, read-out: Vss
# [9] = 10 mg/kg, given as individual enantiomers, 10 mg/kg iv, read-out: Vβ (volume of distribution)
# [10] = 20 mg/kg, enantiomer given in a racemic mixture, 20 mg/kg iv, read-out: Vss
# [11] = ratio (S)-PID to (R)-PID, individual enantiomers, 10 mg/kg iv
# [12] = ratio (S)-PID to (R)-PID, racemic mixture, 20 mg/kg iv
# [13] = ratio (S)-PID to (R)-PID, mice ip
# [14] = SWV mice, single ip 500 mg/kg at day 8.5 of gestation
smiles,measurement,setting,value
"CCCC(C(N)=O)C(C)C (stereo not shown) [PID, propylisopropyl acetamide]",stereospecificity of kinetics,"[1]; enantiomers given individually, FIG. 4",clear stereospecific kinetics
same,stereospecificity of kinetics,"[1]; given in a racemic mixture, FIG. 5",no sterospecifity is observed
same,Embryolethality (percent of total implants),NMRI mice,9.4%
same,Exencephaly (percent of live fetuses),NMRI mice,0 (0) %
same,Fetal Weight,NMRI mice,1.21 ± 0.07 g
same,Live Fetuses,NMRI mice,87 n
same,Total Implants,NMRI mice,96 n
same,MES,mice [2]; mice,122
same,sc Met,mice [3]; mice,77
same,Neurotox.,mice [4],<120
same,ED50 (anticonvulsant activity),rats; oral feeding,22 mg/kg
same,Live Fetuses,SWV mice; [5],118
same,Resorptior (number),SWV mice; [5],8
same,Resorptior (percent of total implants),SWV mice; [5],6.3%
same,Implants,SWV mice; [5],126
same,Exencephaly (number),"SWV mice; SWV mice, single ip 600 mg/kg at day 8.5 of gestation, 600 mg/kg",0
same,Exencephaly (number),"SWV mice; SWV mice, single ip 600 mg/kg at day 8.5 of gestation, listed as racemic, 600 mg/kg",failed to induce exencephaly
"CCC[C@H](C(N)=O)C(C)C [(S)-PID, (S)-propylisopropyl acetamide]",E (liver extraction ratio),[1]; [6],12.1 ± 4.1%
same,Vb,[1]; [6],10.4 ± 1.4 L
same,fe (fraction excreted unchanged in the urine),[1]; [6],0.66 ± 0.46%
same,E (liver extraction ratio),[1]; [7],23.7 ± 3.5%
same,fe (fraction excreted unchanged in the urine),[1]; [7],0.40 ± 0.4%
same,clearance,[1]; [6],100 mL/min
same,MRT,[1]; [6],2.87 ± 0.7 h
same,half-life,[1]; [6],1.27 ± 0.3 h
same,clearance,[1]; [7],188 mL/min
same,MRT,[1]; [7],1.83 ± 0.3 h
same,half-life,[1]; [7],1.04 ± 0.1 h
same,Vd,[1]; [8],19.1 ± 2.7 L
same,Vd,[1]; [9],17 ± 2.9 L
same,Vd,[1]; [10],15.7 ± 0.9 L
same,E S/R,[1]; [11],1.58*
same,Vβ S/R,[1]; [11],1.29
same,fe S/R,[1]; [11],0.78*
same,E S/R,[1]; [12],1.0
same,Vb S/R,[1]; [12],1.0
same,fe S/R,[1]; [12],1.1
same,Embryolethality (percent of total implants),NMRI mice,9.4%
same,Exencephaly (percent of live fetuses),NMRI mice,0 (0) %
same,Fetal Weight,NMRI mice,1.15 ± 0.09 g
same,Live Fetuses,NMRI mice,58 n
same,Total Implants,NMRI mice,64 n
same,MES,mice [2]; mice,145
same,MES S/R,mice [2]; [13],1.32
same,sc Met,mice [3]; mice,80
same,sc Met S/R,mice [3]; [13],1.19
same,Neurotox.,mice [4],118
same,Neurotox. S/R,mice [4]; [13],>0.81
same,ED50,rats; oral feeding,26 mg/kg
same,maternal lethality,"SWV mice; SWV dams, 600 mg/kg ip",several incidences of maternal lethality
same,Exencephaly (number),SWV mice; [14],1
same,Exencephaly (percent of live fetuses),SWV mice; [14],0.8%
same,Live Fetuses,SWV mice; [14],123
same,Resorptior (number),SWV mice; [14],8
same,Resorptior (percent of total implants),SWV mice; [14],6.1%
same,Implants,SWV mice; [14],131
"CCC[C@@H](C(N)=O)C(C)C [(R)-PID, (R)-propylisopropyl acetamide]",E (liver extraction ratio),[1]; [6],12.5 ± 4.0%
same,Vb,[1]; [6],10.2 ± 0.9 L
same,fe (fraction excreted unchanged in the urine),[1]; [6],0.60 ± 0.45%
same,E (liver extraction ratio),[1]; [7],15.0 ± 4.6%
same,fe (fraction excreted unchanged in the urine),[1]; [7],0.50 ± 0.4%
same,clearance compared with (2S)-PID,[1]; iv administration,lower clearance
same,half-life compared with (2S)-PID,[1]; iv administration,longer half-life
same,clearance,[1]; [6],100 mL/min
same,MRT,[1]; [6],2.83 ± 0.6 h
same,half-life,[1]; [6],1.25 ± 0.3 h
same,clearance,[1]; [7],113 mL/min
same,MRT,[1]; [7],2.57 ± 0.5 h
same,half-life,[1]; [7],1.37 ± 0.2 h
same,Vd,[1]; [8],16 ± 1.2 L
same,Vd,[1]; [9],13.1 ± 2.2 L
same,Vd,[1]; [10],15.7 ± 1.5 L
same,Embryolethality (percent of total implants),NMRI mice,15.2%
same,Exencephaly (percent of live fetuses),NMRI mice,0 (0) %
same,Fetal Weight,NMRI mice,1.16 ± 0.08 g
same,Live Fetuses,NMRI mice,78 n
same,Total Implants,NMRI mice,92 n
same,"anticonvulsant activity compared with (2S)-PID, MES test","mice [2]; mice, i.p. administration",more active and showed better potency than (2S)-PID
same,MES,mice [2]; mice,110
same,"anticonvulsant activity compared with (2S)-PID, sc Met test","mice [3]; mice, i.p. administration",more active and showed better potency than (2S)-PID
same,sc Met,mice [3]; mice,67
same,Neurotox.,mice [4],<145
same,ED50,rats; oral feeding,16 mg/kg
same,"anticonvulsant activity compared with (2S)-PID, MES and sc Met tests",rats; oral administration,more active and showed better potency than (2S)-PID
same,Live Fetuses,SWV mice; [5],120
same,Resorptior (number),SWV mice; [5],14
same,Resorptior (percent of total implants),SWV mice; [5],10.4%
same,Implants,SWV mice; [5],134
